Experimental data published in PMC4686210, “Binding of Cyclic Di-AMP to the Staphylococcus aureus Sensor Kinase KdpD Occurs via the Universal Stress Protein Domain and Downregulates the Expression of the Kdp Potassium Transporter” (Journal of Bacteriology, 2015).

Molecular target: T1, KdpD (sensor histidine kinase KdpD, KdpD^Sa) (Staphylococcus aureus, UniProt Q2FWH7)
T1 construct: USP domain, amino acids E225 to F383, MBP fusion [MBP-KdpD(USP)]
Test: DRaCALA with […]-c-di-AMP and purified MBP-KdpD(USP); cold nucleotide competition
Assay type: binding

T1 sequence (Q2FWH7 225-383): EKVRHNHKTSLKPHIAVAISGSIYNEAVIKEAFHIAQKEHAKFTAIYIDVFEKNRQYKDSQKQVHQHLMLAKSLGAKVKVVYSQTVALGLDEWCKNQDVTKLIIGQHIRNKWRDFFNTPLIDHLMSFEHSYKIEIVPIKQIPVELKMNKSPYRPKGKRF

Nc1ncnc2c1ncn2[C@@H]1O[C@@H]2COP(=O)(O)O[C@H]3[C@@H](O)[C@H](n4cnc5c(N)ncnc54)O[C@@H]3COP(=O)(O)O[C@H]2[C@H]1O [c-di-AMP]
Kd: 2000 ± 180 nM
